Measured values from patent publication US5922573A, “IL-1 receptor antagonists with enhanced inhibitory activity” (Dompe' S.p.A., priority 1994, dated 1999).

What was measured:
IL-1β [1] = assay: Inhibition of IL-1β-induced hypoglycaemia in vivo; conditions: hypoglycaemia induced in the mouse by 5.0 μg/kg IL-1β, intraperitoneal, serum glucose after two hours
Procedure: 1. Induction of hypoglycaemia: C3H/HeJ mice or mice of some other strain (3-5 mice/test group) receive stepped doses of IL-1β by intraperitoneal administration. After two hours the animals are killed and the blood is collected for preparation of the serum. The serum glucose content is determined after reaction with glucose oxidase in a commercial calorimetric assay.

murine thymocytes = assay: Inhibition of IL-1β-induced proliferation of murine thymocytes; format: cell-based, mouse; conditions: for Thymocyte proliferation to IL-1β 300 pg/ml, ID50: C3H/HeJ thymocytes with PHA, 72 hours; for Thymocyte proliferation to IL-1β 30 pg/ml, ID50: murine thymocytes
Procedure: 1. Proliferation of murine thymocytes: normal thymocytes are obtained by breaking up thymus glands of C3H/HeJ mice (resistant to bacterial endotoxin) aged 4-8 weeks. The thymocytes (5×10^5 cells/well of Cluster^96 plates) are incubated for 72 hours in RPMI-1640 culture medium with addition of antibiotics, L-glutamine, 2-ME, HEPES and 5% foetal calf serum at 37° C. in air with 5% CO2. […] To determine the proliferation of the thymocytes induced by IL-1, at the end of 72 hours of incubation […] of culture medium containing […] of tritiated thymidine are added to each well. After another 18 hours, the cells from each well are harvested onto small glass-fibre disks and the radioactivity incorporated (proportional to the proliferation of the cells) is measured with a β-counter. For determination of the inhibitory capacity of the improved mutants of IL-1ra , the proliferation of the thymocytes is measured in response to the minimum dose of IL-1 that induces optimum proliferation (generally around 0.3 ng/ml) in the absence or in the presence of stepped doses of IL-1ra (control standard) or of the improved mutants. The improved inhibitory activity of the mutants is determined by calculating the shift of the inhibition curve towards the lower doses when compared with the curve of IL-1ra .

IL-1β [2] = assay: Inhibition of IL-1β-induced neutrophilia in vivo; conditions: neutrophilia induced in the mouse by 150 ng/kg IL-1β; antagonist intraperitoneally at -15 min, 0, +15 min; read four hours after treatment
Procedure: 2. Induction of neutrophilia: C3H/HeJ mice or mice of some other strain (3 mice/test group) receive stepped doses of IL-1β with a single intraperitoneal administration. The increase of circulating neutrophils induced by IL-1 is evaluated by cytofluorimetry four hours after the treatment.

human osteosarcoma MG-63 = assay: Inhibition of IL-1β-induced IL-6 production in MG-63 cells; format: cell-based; conditions: MG-63 cells stimulated with IL-1 around 0.3 ng/ml, 48 hours
Procedure: The quantity of IL-6 in the culture supernatants is measured by a commercial ELISA assay or determined in the biological assay of proliferation of 7TD1 cells.

IL-1RII = target: T1, IL-1RII (Homo sapiens, UniProt P27930); assay: Binding to IL-1RII: displacement of 125I-IL-1β on cells expressing IL-1RII selectively; conditions: displacement of 125I IL-1β equilibrium binding on 10^6 cells
T1 construct: cells which express IL-1RII selectively (e.g. Burkitt's human lymphoma RAJI clone 1H7); endogenous in cells; host or cells: RAJI clone 1H7 (Burkitt's human lymphoma)
T1 sequence (P27930 14-398): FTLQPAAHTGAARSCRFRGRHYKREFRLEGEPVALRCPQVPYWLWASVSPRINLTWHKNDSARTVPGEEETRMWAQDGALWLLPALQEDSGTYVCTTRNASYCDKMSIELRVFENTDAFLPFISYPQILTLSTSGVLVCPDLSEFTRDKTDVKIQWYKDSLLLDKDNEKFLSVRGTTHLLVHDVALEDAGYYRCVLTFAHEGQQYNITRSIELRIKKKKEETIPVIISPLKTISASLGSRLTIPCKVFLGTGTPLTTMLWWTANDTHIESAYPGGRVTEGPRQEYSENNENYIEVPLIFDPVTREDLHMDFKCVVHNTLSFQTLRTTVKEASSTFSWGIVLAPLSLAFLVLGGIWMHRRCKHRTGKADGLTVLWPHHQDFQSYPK
Procedure: (§1) The inhibitory activity of the improved IL-1ra mutants is measured in receptor binding assays, using IL-1ra as the reference standard. Cells which express IL-1RI selectively (e.g. the murine thymoma clone EL4-6.1) and cells which express IL-1RII selectively (e.g. Burkitt's human lymphoma RAJI clone 1H7) are chosen as target cells. The number of receptors per cell and the binding affinity (Kd) in both the lines are calculated from saturation curves obtained by incubating the cells (10^6 cells/test tube in a final volume of 0.1 ml of culture medium with NaN3) with increasing doses of IL-1β labelled with 125I in the presence or absence of a 500-fold molar excess of unlabelled IL-1β (for calculating non-specific binding, generally always less than 5-10%) for the optimum times and at the optimum temperatures for attaining equilibrium (generally 2 hours at room temperature) (Scapigliati et al. FEBS Lett. 243: 394, 1989). To calculate the inhibition activity, tests are conducted by incubating the cells with a concentration of radiolabelled IL-1β corresponding to approximately half of the Kd in the absence or in the presence of stepped doses of IL-1ra (reference standard) or of the improved mutant.
(§2) The improved inhibitory activity of the mutants is determined by calculating the shift of the inhibition curve towards the lower doses when compared with the curve of IL-1ra.

IL-1RI = target: T2, IL-1RI (Mus musculus, UniProt P13504); assay: Binding to IL-1RI: displacement of 125I-IL-1β on cells expressing IL-1RI selectively; conditions: displacement of 125I IL-1β equilibrium binding on 10^6 cells; murine thymoma clone EL4-6.1
T2 construct: Cells which express IL-1RI selectively (e.g. the murine thymoma clone EL4-6.1); endogenous in cells; host or cells: EL4-6.1 (murine thymoma clone)
T2 sequence (P13504 20-576): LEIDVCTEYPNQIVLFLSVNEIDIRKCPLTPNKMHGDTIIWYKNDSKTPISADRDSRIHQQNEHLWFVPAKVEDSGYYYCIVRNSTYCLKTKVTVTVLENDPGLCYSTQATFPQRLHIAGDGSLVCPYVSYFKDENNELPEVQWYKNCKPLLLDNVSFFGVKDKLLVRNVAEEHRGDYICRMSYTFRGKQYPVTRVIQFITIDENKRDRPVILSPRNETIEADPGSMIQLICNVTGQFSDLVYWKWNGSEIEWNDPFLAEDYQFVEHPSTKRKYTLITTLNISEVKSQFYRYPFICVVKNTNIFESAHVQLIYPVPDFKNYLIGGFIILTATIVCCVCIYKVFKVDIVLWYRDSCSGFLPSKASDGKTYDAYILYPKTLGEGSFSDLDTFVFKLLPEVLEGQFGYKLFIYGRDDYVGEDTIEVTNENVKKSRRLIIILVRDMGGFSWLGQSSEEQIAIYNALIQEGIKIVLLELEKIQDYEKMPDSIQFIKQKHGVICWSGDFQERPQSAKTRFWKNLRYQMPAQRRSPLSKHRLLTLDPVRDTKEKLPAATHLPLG
Procedure: as §1, §2

[3] = Burkitt's human lymphoma RAJI clone 1H7

Binding to IL-1RII, ID50 (IL-1RII; [3])	Binding to IL-1RI, ID50 (IL-1RI)	Binding to IL-1RII, ID50 (IL-1RII; RAJI clone 1H7, unit as printed in this cell)	Substance	Hypoglycaemia, ID50 (IL-1β [1])	Thymocyte proliferation to IL-1β 300 pg/ml, ID50 (murine thymocytes)	Neutrophilia, ID100 (IL-1β [2])	IL-6 production, ID50 (human osteosarcoma MG-63)	Thymocyte proliferation to IL-1β 30 pg/ml, ID50 (murine thymocytes)
70.70 nM	0.22 nM		MILRA-3: IL-1ra double mutant N91/T109→R/A	0.076 mg/kg				0.285 ng/mL
	0.19 nM	1.8 nM	MILRA-2: IL-1ra mutant T109→A (alanine in position 109 of the mature protein)		1.75 ng/mL		1.12 ng/mL	
19.60 nM	0.34 nM		IL-1ra: wild type IL-1 receptor antagonist, a mature protein of 152 amino acids, used as reference standard [reference compound]	0.968 mg/kg	4.10 ng/mL	0.225 mg/kg	3.60 ng/mL	0.813 ng/mL

Substance	Binding to IL-1RII, ID50 (IL-1RII; [3])	Binding to IL-1RI, ID50 (IL-1RI)	Binding to IL-1RII, ID50 (IL-1RII; RAJI clone 1H7, unit as printed in this cell)	Hypoglycaemia, ID50 (IL-1β [1])	Thymocyte proliferation to IL-1β 300 pg/ml, ID50 (murine thymocytes)	Neutrophilia, ID100 (IL-1β [2])	IL-6 production, ID50 (human osteosarcoma MG-63)	Thymocyte proliferation to IL-1β 30 pg/ml, ID50 (murine thymocytes)
MILRA-1: IL-1ra mutant N91→R (arginine in position 91 of the mature protein)	13.20 nM	0.17 nM		0.128 mg/kg	1.78 ng/mL	< 0.0225 mg/kg	0.62 ng/mL	
